This note sets out measurements from US20260265238A1, “COMPOUNDS AND PHARMACEUTICAL COMPOSITIONS THAT DEGRADE SWI/SNF-RELATED MATRIX-ASSOCIATED ACTIN-DEPENDENT REGULATOR OF CHROMATIN SUBFAMILY A” (Plexium, Inc., priority 2023, published 2026).

One may read the DC50 as the concentration at which degradation of the target reaches its halfway point. The term inhibition denotes the percentage by which the read-out fell short of the control. Read a high inhibition as a response far below the control.

Some results are limits rather than exact numbers.

The target in experiment [1] is T1, SMARCA4-HiBiT HeLa cells (protein which is expressed from the SMARCA4 gene) (Homo sapiens, UniProt P51532).
T1 construct: protein which is expressed from the SMARCA2 and SMARCA4 genes; host or cells: HeLa (SMARCA4-HiBiT engineered line)
T1 sequence (P51532 whole entry): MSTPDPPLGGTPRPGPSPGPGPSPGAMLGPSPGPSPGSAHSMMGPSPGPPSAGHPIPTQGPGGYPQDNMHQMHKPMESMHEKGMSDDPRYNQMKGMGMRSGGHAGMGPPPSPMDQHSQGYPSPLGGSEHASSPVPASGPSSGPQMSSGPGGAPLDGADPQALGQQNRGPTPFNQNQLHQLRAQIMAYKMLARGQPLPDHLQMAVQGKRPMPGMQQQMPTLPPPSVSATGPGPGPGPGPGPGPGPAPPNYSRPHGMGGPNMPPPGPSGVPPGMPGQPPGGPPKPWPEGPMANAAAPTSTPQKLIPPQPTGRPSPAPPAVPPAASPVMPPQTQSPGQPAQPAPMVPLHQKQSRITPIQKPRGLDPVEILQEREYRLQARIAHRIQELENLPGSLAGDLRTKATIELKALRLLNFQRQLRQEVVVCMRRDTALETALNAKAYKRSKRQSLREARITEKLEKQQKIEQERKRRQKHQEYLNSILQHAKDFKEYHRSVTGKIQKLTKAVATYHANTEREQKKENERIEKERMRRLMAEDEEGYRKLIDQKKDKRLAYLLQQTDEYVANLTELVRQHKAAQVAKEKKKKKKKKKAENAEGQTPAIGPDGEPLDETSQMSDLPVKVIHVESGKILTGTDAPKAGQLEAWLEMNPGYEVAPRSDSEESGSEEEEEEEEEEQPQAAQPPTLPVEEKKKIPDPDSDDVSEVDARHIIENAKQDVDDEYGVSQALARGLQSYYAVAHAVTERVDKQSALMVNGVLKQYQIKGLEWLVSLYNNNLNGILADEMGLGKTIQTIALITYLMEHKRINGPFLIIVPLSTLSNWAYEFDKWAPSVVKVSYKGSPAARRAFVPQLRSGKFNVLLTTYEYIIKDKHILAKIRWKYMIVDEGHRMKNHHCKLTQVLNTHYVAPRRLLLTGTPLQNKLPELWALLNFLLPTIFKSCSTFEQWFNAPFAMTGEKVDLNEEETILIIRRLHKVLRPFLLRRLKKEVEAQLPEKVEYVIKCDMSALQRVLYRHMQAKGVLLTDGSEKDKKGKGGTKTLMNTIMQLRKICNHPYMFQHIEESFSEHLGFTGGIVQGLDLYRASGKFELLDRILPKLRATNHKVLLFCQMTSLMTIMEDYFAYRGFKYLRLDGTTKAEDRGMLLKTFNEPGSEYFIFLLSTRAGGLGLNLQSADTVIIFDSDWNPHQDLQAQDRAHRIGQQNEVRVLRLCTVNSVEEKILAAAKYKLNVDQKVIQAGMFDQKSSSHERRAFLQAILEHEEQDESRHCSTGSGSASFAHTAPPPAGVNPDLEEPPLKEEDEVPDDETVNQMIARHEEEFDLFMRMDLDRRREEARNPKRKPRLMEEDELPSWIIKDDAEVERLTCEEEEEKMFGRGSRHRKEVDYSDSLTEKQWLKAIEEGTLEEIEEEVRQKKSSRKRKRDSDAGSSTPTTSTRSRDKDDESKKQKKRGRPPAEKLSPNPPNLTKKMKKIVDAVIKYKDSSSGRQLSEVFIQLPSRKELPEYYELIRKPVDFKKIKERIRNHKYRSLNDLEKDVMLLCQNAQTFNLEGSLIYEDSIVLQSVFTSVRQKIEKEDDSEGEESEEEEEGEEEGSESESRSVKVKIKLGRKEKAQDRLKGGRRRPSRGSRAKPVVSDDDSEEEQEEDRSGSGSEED
Kind of experiment: SMARCA4 degradation assay (HiBiT-fusion HeLa cell line, 24 h, luminescence). Format: cell-based. A digest of the protocol:
(§1)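 HeLa cells carrying HiBiT-tagged SMARCA2 or SMARCA4 were seeded at 8,000 cells/well, allowed to attach overnight at 37° C., then given compounds in a 10-point dilution series (typically 10 μM to 300 pM) for 24 hours at 37° C. Remaining tagged protein was read by HiBiT lytic luminescence, and DC50s came from dose-response curves.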
(The HiBiT peptide binds its large partner to form an active luciferase.)

Experiment [2] concerns the target T2, SMARCA2-HiBiT HeLa cells (protein which is expressed from the SMARCA2 gene) (Homo sapiens, UniProt P51531).
T2 construct: protein which is expressed from the SMARCA2 and SMARCA4 genes; host or cells: HeLa (SMARCA2-HiBiT engineered line)
Kind of experiment: SMARCA2 degradation assay (HiBiT-fusion HeLa cell line, 24 h, luminescence). It counts as cell-based. A digest of the protocol:
as §1

T2 sequence (P51531 whole entry): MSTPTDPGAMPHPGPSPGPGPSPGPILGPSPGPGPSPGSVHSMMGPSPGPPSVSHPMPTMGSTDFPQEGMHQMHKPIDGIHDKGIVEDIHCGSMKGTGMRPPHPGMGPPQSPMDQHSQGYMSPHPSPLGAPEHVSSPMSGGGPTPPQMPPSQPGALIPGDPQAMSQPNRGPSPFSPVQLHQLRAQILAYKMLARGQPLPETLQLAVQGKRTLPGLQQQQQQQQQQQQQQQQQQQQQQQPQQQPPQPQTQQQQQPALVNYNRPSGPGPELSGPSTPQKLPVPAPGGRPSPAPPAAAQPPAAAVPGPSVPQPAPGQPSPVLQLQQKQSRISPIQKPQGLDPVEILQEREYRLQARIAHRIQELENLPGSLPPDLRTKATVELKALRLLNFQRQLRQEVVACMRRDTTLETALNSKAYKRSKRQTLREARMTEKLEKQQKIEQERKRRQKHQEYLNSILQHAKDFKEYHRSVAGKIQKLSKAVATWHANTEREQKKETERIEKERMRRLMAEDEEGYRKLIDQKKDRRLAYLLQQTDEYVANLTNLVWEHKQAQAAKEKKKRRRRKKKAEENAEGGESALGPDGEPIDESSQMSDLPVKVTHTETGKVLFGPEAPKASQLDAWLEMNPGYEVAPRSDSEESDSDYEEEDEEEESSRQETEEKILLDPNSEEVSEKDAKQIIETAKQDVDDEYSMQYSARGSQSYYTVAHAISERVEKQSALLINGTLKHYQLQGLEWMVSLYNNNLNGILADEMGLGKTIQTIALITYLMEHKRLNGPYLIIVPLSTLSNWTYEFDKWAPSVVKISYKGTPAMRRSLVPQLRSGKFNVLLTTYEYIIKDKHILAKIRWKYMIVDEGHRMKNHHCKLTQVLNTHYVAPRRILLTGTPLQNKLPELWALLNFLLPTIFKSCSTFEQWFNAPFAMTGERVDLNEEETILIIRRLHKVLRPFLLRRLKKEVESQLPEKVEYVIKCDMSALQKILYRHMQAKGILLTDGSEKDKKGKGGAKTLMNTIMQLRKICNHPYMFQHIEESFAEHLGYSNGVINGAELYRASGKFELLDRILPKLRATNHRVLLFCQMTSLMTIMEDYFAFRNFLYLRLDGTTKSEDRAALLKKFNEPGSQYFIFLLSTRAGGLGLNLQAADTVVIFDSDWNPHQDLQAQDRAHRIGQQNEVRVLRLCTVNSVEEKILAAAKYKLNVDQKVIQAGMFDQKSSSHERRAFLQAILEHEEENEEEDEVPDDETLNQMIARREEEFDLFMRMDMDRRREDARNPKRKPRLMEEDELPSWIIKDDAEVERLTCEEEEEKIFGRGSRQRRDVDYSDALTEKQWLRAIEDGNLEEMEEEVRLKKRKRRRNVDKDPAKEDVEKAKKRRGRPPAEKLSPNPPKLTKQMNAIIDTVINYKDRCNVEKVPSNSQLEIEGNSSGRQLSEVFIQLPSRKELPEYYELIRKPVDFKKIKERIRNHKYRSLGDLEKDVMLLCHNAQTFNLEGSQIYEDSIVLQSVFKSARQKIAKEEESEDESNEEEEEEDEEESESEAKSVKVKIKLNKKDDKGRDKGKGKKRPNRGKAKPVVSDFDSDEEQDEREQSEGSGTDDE

Turning to `Nc1nnc(-c2ccccc2O)cc1N1CC2CCC(C1)N2c1ccnc(C#CCNC(=O)c2cccnc2)n1` [Compound P-241, N-[3-(4-{3-[3-amino-6-(o-hydroxyphenyl)-4-pyridazinyl]-3,8-diazabicyclo[3.2.1]oct-8-yl}-2-pyrimidinyl)-2-propynyl]nicotinamide], the DC50 in experiment [1] and in experiment [2] was 50 to 500 nM in each case. For the same compound, in experiment [1] (@ 1 μM), the inhibition at 1 µM was 30 to 70%. Further, the “SMARCA2 % Degradation @ 1 μM” value in experiment [2] (@ 1 μM) is given as “++ (++=30-70%)”.
Consider `CN(C)CC#Cc1cc(N2C3CCC2CN(c2cc(-c4ccccc4O)nnc2N)CC3)ccn1` (centres unmarked) [Compound P-382, 0-[6-amino-5-(9-{2-[3-(dimethylamino)-1-propynyl]-4-pyridyl}-3,9-diazabicyclo[4.2.1]non-3-y1)-3-pyridazinyl]phenol], for which the DC50 in experiment [1] and in experiment [2] was < 50 nM each time. In addition, in experiment [1] (1 μM), the inhibition at 1 µM is > 70%. The “SMARCA2 % Degradation @ 1 μM” value in experiment [2] (1 μM) is on record as “+++ (+++=>70%)”.
For the compound `C[C@H]1CN(c2ccnc(C#CCNc3ccn(C)n3)n2)CCN1c1cc(-c2ccccc2O)nnc1N` [Compound P-328, 0-{5-[(S)-2-methyl-4-{2-[3-(1-methyl-3-pyrazolylamino)-1-propynyl]-4-pyrimidinyl}-1-piperazinyl]-6-amino-3-pyridazinyl}phenol], the DC50 in experiment [1] and in experiment [2] was 50 to 500 nM each time. The inhibition at 1 µM in experiment [1] (@ 1 μM) lay within 30 to 70%. Besides, the “SMARCA2 % Degradation @ 1 μM” value in experiment [2] (@ 1 μM) is listed as “++ (++=30-70%)”.
Regarding `CNCC#Cc1nccc(N2C3CCC2CN(c2cc(-c4ccccc4O)nnc2N)C3)n1` [Compound P-291, 0-[6-amino-5-(8-{2-[3-(methylamino)-1-propynyl]-4-pyrimidinyl}-3,8-diazabicyclo[3.2.1]oct-3-yl)-3-pyridazinyl]phenol], the DC50 in experiment [1] and in experiment [2] was 50 to 500 nM in each case. Also, the inhibition at 1 µM in experiment [1] (@ 1 μM) is < 30%. Besides, the “SMARCA2 % Degradation @ 1 μM” value in experiment [2] (@ 1 μM) was “++ (++=30-70%)”.
For `CN(C)c1cc(N2CCCN(c3cc(-c4ccccc4O)nnc3N)CC2)nc(C#CCNC(=O)c2cc3ncccn3n2)n1` [Compound P-139, N-(3-(4-(4-(3-amino-6-(2-hydroxyphenyl)pyridazin-4-yl)-1,4-diazepan-1-yl)-6-(dimethylamino)pyrimidin-2-yl)prop-2-yn-1-yl)pyrazolo[1,5-a]pyrimidine-2-carboxamide], the DC50 was in the range of 500 to 5000 nM in experiment [1] and 50 to 500 nM in experiment [2]. In addition, the inhibition at 1 µM in experiment [1] (@ 1 μM) was > 70%. In addition, the “SMARCA2 % Degradation @ 1 μM” value in experiment [2] (@ 1 μM) is on record as “+++ (+++=>70%)”.
For the compound `COCC1CN(CC#Cc2nccc(N3CCN(c4cc(-c5ccccc5O)nnc4N)CC[C@H]3C)n2)CCO1` (stereo partly drawn) [Compound P-161, o-{5-[(R)-4-(2-{3-[2-(methoxymethyl)-4-morpholinyl]-1-propynyl}-4-pyrimidinyl)-5-methyl-1,4-diazepan-1-yl]-6-amino-3-pyridazinyl}phenol], the DC50 in experiment [1] and in experiment [2] was 50 to 500 nM throughout. The compound further had an inhibition at 1 µM in experiment [1] (@ 1 μM) of 30 to 70%. In addition, in experiment [2] (@ 1 μM), the “SMARCA2 % Degradation @ 1 μM” value is given as “++ (++=30-70%)”.
Take `NCC#Cc1nccc(N2CC3CN(c4cc(-c5ccccc5O)nnc4N)C3C2)n1` (centres unmarked) [Compound P-84, 2-(6-amino-5-(3-(2-(3-aminoprop-1-yn-1-yl)pyrimidin-4-yl)-3,6-diazabicyclo[3.2.0]heptan-6-yl)pyridazin-3-yl)phenol]: the DC50 in experiment [1] was > 5000 nM; in experiment [2], 500 to 5000 nM. Also, in experiment [1] (@ 1 μM), the inhibition at 1 µM was < 30%. Further, the “SMARCA2 % Degradation @ 1 μM” value in experiment [2] (@ 1 μM) was “+ (+=<30%)”.
On the same counts, the results for `C[C@@H]1CCN(c2cc(-c3ccccc3O)nnc2N)CCN1c1ccnc(/C=C/CN(C)CCF)n1` [Compound P-164] are < 50 nM, < 50 nM, 30 to 70% and “+++ (+++=>70%)”.
With `CCC1CN(c2ccnc(C#CCNC(=O)c3cc4ncccn4n3)n2)CCN1c1cc(-c2ccccc2O)nnc1N` (centres unmarked) [Compound P-51, N-(3-(4-(4-(3-amino-6-(2-hydroxyphenyl)pyridazin-4-yl)-3-ethylpiperazin-1-yl)pyrimidin-2-yl)prop-2-yn-1-yl)pyrazolo[1,5-a]pyrimidine-2-carboxamide], the DC50 in experiment [1] and in experiment [2] was 50 to 500 nM each time. The inhibition at 1 µM in experiment [1] (@ 1 μM) was in the range of 30 to 70%. The “SMARCA2 % Degradation @ 1 μM” value in experiment [2] (@ 1 μM) is given as “++ (++=30-70%)”.
Turning to `CC1(F)CCN(CC#Cc2nccc(N3CCC4(CC3)CCN(c3cc(-c5ccccc5O)nnc3N)C4)n2)C1` (centres unmarked) [Compound P-195, o-[6-amino-5-(8-{2-[3-(3-fluoro-3-methyl-1-pyrrolidinyl)-1-propynyl]-4-pyrimidinyl}-2,8-diaza-2-spiro[4.5]decyl)-3-pyridazinyl]phenol], the DC50 in experiment [1] and in experiment [2] was 50 to 500 nM throughout. Further, in experiment [1] (@ 1 μM), the inhibition at 1 µM was 30 to 70%. Besides, the “SMARCA2 % Degradation @ 1 μM” value in experiment [2] (@ 1 μM) is reported as “++ (++=30-70%)”.
Regarding `Nc1nnc(-c2ccccc2O)cc1N1CCCN(c2ccnc(C#CC3CCOC3)n2)CC1` (centres unmarked) [Compound P-340, 0-[6-amino-5-(4-{2-[2-(tetrahydro-3-furyl)ethynyl]-4-pyrimidinyl}-1,4-diazepan-1-yl)-3-pyridazinyl]phenol], the half-maximal degradation concentration (DC50) in experiment [1] and in experiment [2] was 50 to 500 nM in each case. Further, the inhibition at 1 µM in experiment [1] (@ 1 μM) fell in the range of 30 to 70%. Besides, in experiment [2] (@ 1 μM), the “SMARCA2 % Degradation @ 1 μM” value is given as “++ (++=30-70%)”.
Turning to `Nc1nnc(-c2ccccc2O)cc1N1CCCN(c2ccnc(C#CCn3ccc(-c4ccccn4)n3)n2)CC1` [Compound P-138, 2-(6-amino-5-(4-(2-(3-(3-(pyridin-2-yl)-1H-pyrazol-1-yl)prop-1-yn-1-yl)pyrimidin-4-yl)-1,4-diazepan-1-yl)pyridazin-3-yl)phenol], the DC50 in experiment [1] and in experiment [2] was 50 to 500 nM throughout. In addition, the inhibition at 1 µM in experiment [1] (@ 1 μM) was in the range of 30 to 70%. The “SMARCA2 % Degradation @ 1 μM” value in experiment [2] (@ 1 μM) is reported as “+++ (+++=>70%)”.
For `CN(C)CC#Cc1nccc(N2CCCC(c3cc(-c4ccccc4O)nnc3N)CC2)n1` (centres unmarked) [Compound P-172, o-[6-amino-5-(1-{2-[3-(dimethylamino)-1-propynyl]-4-pyrimidinyl}-4-azepanyl)-3-pyridazinyl]phenol], the DC50 in experiment [1] and in experiment [2] was < 50 nM throughout. The inhibition at 1 µM in experiment [1] (@ 1 μM) was in the range of 30 to 70%. Besides, the “SMARCA2 % Degradation @ 1 μM” value in experiment [2] (@ 1 μM) is given as “++ (++=30-70%)”.
As to `C[C@@H]1CCN(c2cc(-c3ccccc3O)nnc2N)CCN1c1nc(C#CCNC(=O)OC(C)(C)C)ncc1F` [Compound P-248], the DC50 in experiment [1] and in experiment [2] was 500 to 5000 nM throughout. Further, the inhibition at 1 µM in experiment [1] (@ 1 μM) is < 30%. Also, the “SMARCA2 % Degradation @ 1 μM” value in experiment [2] (@ 1 μM) is on record as “++ (++=30-70%)”.
`Cc1c(C(=O)NC/C=C/c2nccc(N3CCCN(c4cc(-c5ccccc5O)nnc4N)CC3)n2)nn(C)c1C` [Compound P-111, (E)-N-(3-(4-(4-(3-amino-6-(2-hydroxyphenyl)pyridazin-4-yl)-1,4-diazepan-1-yl)pyrimidin-2-yl)allyl)-1,4,5-trimethyl-1H-pyrazole-3-carboxamide]: the DC50 in experiment [1] and in experiment [2] was 50 to 500 nM each time. This compound yielded an inhibition at 1 µM in experiment [1] (@ 1 μM) of 30 to 70%. In addition, the “SMARCA2 % Degradation @ 1 μM” value in experiment [2] (@ 1 μM) was “+++ (+++=>70%)”.
Turning to `Nc1nnc(-c2ccccc2O)cc1N1CCCN(c2ccnc(C#CCNC(=O)NC3CCC3)n2)CC1` [Compound P-325, 0-[6-amino-5-(4-{2-[3-(3-cyclobutylureido)-1-propynyl]-4-pyrimidinyl}-1,4-diazepan-1-yl)-3-pyridazinyl]phenol], the DC50 is 50 to 500 nM in experiment [1] and 500 to 5000 nM in experiment [2]. Besides, the inhibition at 1 µM in experiment [1] (@ 1 μM) lay in the range of 30 to 70%. For the same compound, the “SMARCA2 % Degradation @ 1 μM” value in experiment [2] (@ 1 μM) is “++ (++=30-70%)”.
Take `C/C=C/c1nccc(N2CCN(c3cc(-c4ccccc4O)nnc3N)CC[C@H]2C)n1` [Compound P-169, o-(5-{(R)-5-methyl-4-[2-(1-propenyl)-4-pyrimidinyl]-1,4-diazepan-1-yl}-6-amino-3-pyridazinyl)phenol]: the DC50 in experiment [1] and in experiment [2] was 50 to 500 nM each time. For the same compound, the inhibition at 1 µM in experiment [1] (@ 1 μM) is > 70%. Also, the “SMARCA2 % Degradation @ 1 μM” value in experiment [2] (@ 1 μM) is “+++ (+++=>70%)”.
Regarding `C[C@@H]1CCN(c2cc(-c3ccccc3O)nnc2N)CCN1c1ccnc(C#CCN2CC3CC2C3)n1` [Compound P-234, o-{5-[(R)-4-(2-{3-(2-azabicyclo[2.1.1]hex-2-yl)-1-propynyl}-4-pyrimidinyl)-5-methyl-1,4-diazepan-1-yl]-6-amino-3-pyridazinyl}phenol], the DC50 in experiment [1] and in experiment [2] was < 50 nM in each case. In experiment [1] (@ 1 μM), this compound yielded an inhibition at 1 µM of 30 to 70%. For the same compound, the “SMARCA2 % Degradation @ 1 μM” value in experiment [2] (@ 1 μM) was “+++ (+++=>70%)”.
`Nc1nnc(-c2ccccc2O)cc1N1CC[C@@H]2[C@H]1CN2c1ccnc(C#CCNC(=O)c2cc3ncccn3n2)n1` [Compound P-47, N-(3-(4-((1R,5R)-2-(3-amino-6-(2-hydroxyphenyl)pyridazin-4-yl)-2,6-diazabicyclo[3.2.0]heptan-6-yl)pyrimidin-2-yl)prop-2-yn-1-yl)pyrazolo[1,5-a]pyrimidine-2-carboxamide]: the DC50 in experiment [1] and in experiment [2] was 500 to 5000 nM in each case. For the same compound, in experiment [1] (@ 1 μM), the inhibition at 1 µM is < 30%. The “SMARCA2 % Degradation @ 1 μM” value in experiment [2] (@ 1 μM) is on record as “+ (+=<30%)”.
As to `C[C@@H]1CCN(c2cc(-c3ccccc3O)nnc2N)CCN1c1ccnc(C#CCN2C3COCC2C3)n1` [Compound P-184, o-{5-[(R)-5-methyl-4-(2-{3-(3-oxa-6-azabicyclo[3.1.1]hept-6-yl)-1-propynyl}-4-pyrimidinyl)-1,4-diazepan-1-yl]-6-amino-3-pyridazinyl}phenol], the DC50 in experiment [1] and in experiment [2] was < 50 nM each time. Moreover, the inhibition at 1 µM in experiment [1] (@ 1 μM) lay in the range of 30 to 70%. In addition, the “SMARCA2 % Degradation @ 1 μM” value in experiment [2] (@ 1 μM) is on record as “+++ (+++=>70%)”.
